Molecular target: T1, HDM2 (Homo sapiens, UniProt Q00987)
T1 construct: Thioredoxin (N); made in house; host or cells: E. coli strain BL21(DE3)Rosetta
Assay: HDM2 FRET assay (inhibition of binding of FITC labeled p53-pocket peptide to HDM2)
Conditions: Table 6; read-out: FRET IC50
Summary of the method: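 Final: 0.5 nM His-HDM2, 3 nM FITC peptide, 0.25 nM Tb anti-His Ab; PBS, 0.01% BSA, 0.01% Tween-20; 0.1% DMSO.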

T1 sequence (Q00987 17-125): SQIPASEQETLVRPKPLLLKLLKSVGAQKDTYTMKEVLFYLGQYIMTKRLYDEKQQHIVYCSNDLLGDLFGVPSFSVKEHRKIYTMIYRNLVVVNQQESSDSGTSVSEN

Row | Compound | IC50 [nM]
1 | Cc1cccc(-c2nc3nc(C(=O)O)nc(N[C@@H](C)C(C)(C)C)c3n2Cc2ccc(C(F)(F)F)cc2)c1 [Example 6.41, 8-(3-methylphenyl)-7-[4-(trifluoromethyl)benzyl]-6-{[(1S)-1,2,2-trimethylpropyl]amino}-7H-purine-2-carboxylic acid] | 638
2 | Cc1cccc(-c2nc3nc(C(=O)O)nc(N[C@H](C)C4CCCCC4)c3n2Cc2ccc(C(F)(F)F)cc2)c1 [Example 6.42, 6-{[(1R)-1-cyclohexylethyl]amino}-8-(3-methylphenyl)-7-[4-(trifluoromethyl)benzyl]-7H-purine-2-carboxylic acid] | 564
3 | Cc1cccc(-c2nc3nc(C(=O)O)nc(NC4CCOCC4)c3n2Cc2ccc(C(F)(F)F)cc2)c1 [Example 6.43, 8-(3-methylphenyl)-6-(tetrahydro-2H-pyran-4-ylamino)-7-[4-(trifluoromethyl)benzyl]-7H-purine-2-carboxylic acid] | 1710
4 | Cc1cccc(-c2nc3nc(C(=O)O)nc(N[C@H](C)c4ccc(Cl)cc4)c3n2Cc2ccc(C(F)(F)F)cc2)c1 [Example 6.44, 6-{[(1R)-1-(4-chlorophenyl)ethyl]amino}-8-(3-methylphenyl)-7-[4-(trifluoromethyl)benzyl]-7H-purine-2-carboxylic acid] | 372
5 | Cc1cccc(-c2nc3nc(C(=O)O)nc(N[C@@H](C)C4CCCCC4)c3n2Cc2ccc(C(F)(F)F)cc2)c1 [Example 6.45, 6-{[(1S)-1-cyclohexylethyl]amino}-8-(3-methylphenyl)-7-[4-(trifluoromethyl)benzyl]-7H-purine-2-carboxylic acid] | 1610
6 | Cc1cccc(-c2nc3nc(C(=O)O)nc(N[C@@H](C)c4ccc(Cl)cc4)c3n2Cc2ccc(C(F)(F)F)cc2)c1 [Example 6.46, 6-{[(1S)-1-(4-chlorophenyl)ethyl]amino}-8-(3-methylphenyl)-7-[4-(trifluoromethyl)benzyl]-7H-purine-2-carboxylic acid] | 4120
7 | Cc1cccc(-c2nc3nc(C(=O)O)nc(N[C@H](C)C(C)(C)C)c3n2Cc2ccc(C(F)(F)F)cc2)c1 [Example 6.47, 8-(3-methylphenyl)-7-[4-(trifluoromethyl)benzyl]-6-{[(1R)-1,2,2-trimethylpropyl]amino}-7H-purine-2-carboxylic acid] | 448
8 | Cc1cccc(-c2nc3nc(C(=O)O)nc(N[C@H](C)C(C)C)c3n2Cc2ccc(C(F)(F)F)cc2)c1 [Example 6.48, 6-{[(1R)-1,2-dimethylpropyl]amino}-8-(3-methylphenyl)-7-[4-(trifluoromethyl)benzyl]-7H-purine-2-carboxylic acid] | 145
9 | Cc1cccc(-c2nc3nc(C(=O)O)nc(N[C@@H](C)C(C)C)c3n2Cc2ccc(C(F)(F)F)cc2)c1 [Example 6.49, 6-{[(1S)-1,2-dimethylpropyl]amino}-8-(3-methylphenyl)-7-[4-(trifluoromethyl)benzyl]-7H-purine-2-carboxylic acid] | 622
10 | Cc1cccc(-c2nc3nc(C(=O)O)nc(NCC4CCCCC4)c3n2Cc2ccc(C(F)(F)F)cc2)c1 [Example 6.50, 6-[(cyclohexylmethyl)amino]-8-(3-methylphenyl)-7-[4-(trifluoromethyl)benzyl]-7H-purine-2-carboxylic acid] | 1370
11 | CCN(CC)c1nc(C(=O)O)nc2nc(-c3cccc(C)c3)n(Cc3ccc(C(F)(F)F)cc3)c12 [Example 6.51, 6-(diethylamino)-8-(3-methylphenyl)-7-[4-(trifluoromethyl)benzyl]-7H-purine-2-carboxylic acid] | 4600
12 | Cc1cccc(-c2nc3nc(C(=O)O)nc(N[C@H](C4CC4)C(F)(F)F)c3n2Cc2ccc(C(F)(F)F)cc2)c1 [Example 6.52, 6-{[(1R)-1-cyclopropyl-2,2,2-trifluoroethyl]amino}-8-(3-methylphenyl)-7-[4-(trifluoromethyl)benzyl]-7H-purine-2-carboxylic acid] | 319

Source: patent EP2951180B1, “2,6,7,8 SUBSTITUTED PURINES AS HDM2 INHIBITORS” (Merck Sharp & Dohme Corp., priority 2013, dated 2014)
